Where two headings read alike, the source gives them in different places.
What was measured:
[1] = molecular target: T1, AMPK α1β1γ1 (Homo sapiens, UniProt P54619+Q13131+Q9Y478); test: Steady-state kinetics, radiometric SAMS assay; format: biochemical; details: absence of AMP, SAMS fixed at ~10-fold Km, read-out: Km ATP
T1 construct: Recombinant full-length AMPK heterotrimeric complexes α1β1γ1, α1β2γ1, α1β2γ3, α2β1γ1, α2β2γ1 and α2β2γ3 were cloned; 6X-His (N); made in house; host or cells: E. coli BL21-CodonPlus (DE3)-RIPL
T1 sequence (Q13131 whole entry): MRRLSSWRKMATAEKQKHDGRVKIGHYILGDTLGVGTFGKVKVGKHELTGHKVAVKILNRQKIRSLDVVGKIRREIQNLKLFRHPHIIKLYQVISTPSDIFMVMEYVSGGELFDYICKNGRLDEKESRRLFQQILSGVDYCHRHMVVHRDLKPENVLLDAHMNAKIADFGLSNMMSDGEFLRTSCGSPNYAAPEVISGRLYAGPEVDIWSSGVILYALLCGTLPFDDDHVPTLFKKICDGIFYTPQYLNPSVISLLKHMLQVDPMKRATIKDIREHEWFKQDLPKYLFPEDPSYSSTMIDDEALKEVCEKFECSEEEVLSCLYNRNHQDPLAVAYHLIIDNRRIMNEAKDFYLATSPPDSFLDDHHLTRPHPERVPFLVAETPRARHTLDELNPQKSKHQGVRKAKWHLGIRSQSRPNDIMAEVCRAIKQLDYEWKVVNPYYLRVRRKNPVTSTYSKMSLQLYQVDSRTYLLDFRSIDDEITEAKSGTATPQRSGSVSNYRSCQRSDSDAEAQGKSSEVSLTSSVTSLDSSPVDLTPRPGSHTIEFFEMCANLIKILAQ
T1 sequence (Q9Y478 whole entry): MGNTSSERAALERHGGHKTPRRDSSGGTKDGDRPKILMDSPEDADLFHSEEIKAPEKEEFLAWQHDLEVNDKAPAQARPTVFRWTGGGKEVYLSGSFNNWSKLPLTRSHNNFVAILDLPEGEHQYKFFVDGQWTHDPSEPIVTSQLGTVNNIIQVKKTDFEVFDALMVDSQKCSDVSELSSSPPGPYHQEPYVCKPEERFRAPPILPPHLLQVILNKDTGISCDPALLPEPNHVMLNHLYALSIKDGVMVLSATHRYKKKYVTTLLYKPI
T1 sequence (P54619 whole entry): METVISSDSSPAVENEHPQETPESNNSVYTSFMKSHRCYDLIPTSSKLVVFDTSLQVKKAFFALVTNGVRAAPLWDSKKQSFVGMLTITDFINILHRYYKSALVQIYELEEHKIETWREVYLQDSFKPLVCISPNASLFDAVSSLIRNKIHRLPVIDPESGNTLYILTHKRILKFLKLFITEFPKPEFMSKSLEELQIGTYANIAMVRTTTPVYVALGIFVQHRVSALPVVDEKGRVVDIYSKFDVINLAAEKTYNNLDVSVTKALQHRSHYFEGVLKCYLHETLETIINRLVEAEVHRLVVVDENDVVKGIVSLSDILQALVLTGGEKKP
Procedure: (§1) The kinase activity of pAMPK was measured via AMPK-mediated incorporation of ^33phosphate from [^33P]ATP into the synthetic peptide called SAMS [31] using the radiometric assay as described before. […] Assay linearity was ensured by determining that <30% substrate was depleted for all concentrations tested. The Km values were obtained in the absence of AMP in the reaction. Data were fitted by non-linear regression to the Michaelis–Menten equation using GraphPad prism to obtain the kinetic parameters. The specific radioactivity of each isoform was determined at saturating concentrations of each substrate.

[2] = molecular target: T2, AMPK α1β2γ3 (Homo sapiens, UniProt O43741+Q13131+Q9UGI9); test: Steady-state kinetics, radiometric SAMS assay; format: biochemical; details: absence of AMP, SAMS fixed at ~10-fold Km, read-out: Km ATP
T2 construct: Recombinant full-length AMPK heterotrimeric complexes α1β1γ1, α1β2γ1, α1β2γ3, α2β1γ1, α2β2γ1 and α2β2γ3 were cloned; 6X-His (N); made in house; host or cells: E. coli BL21-CodonPlus (DE3)-RIPL
T2 sequence (Q13131 whole entry): as the sequence (Q13131 whole entry) above
T2 sequence (O43741 whole entry): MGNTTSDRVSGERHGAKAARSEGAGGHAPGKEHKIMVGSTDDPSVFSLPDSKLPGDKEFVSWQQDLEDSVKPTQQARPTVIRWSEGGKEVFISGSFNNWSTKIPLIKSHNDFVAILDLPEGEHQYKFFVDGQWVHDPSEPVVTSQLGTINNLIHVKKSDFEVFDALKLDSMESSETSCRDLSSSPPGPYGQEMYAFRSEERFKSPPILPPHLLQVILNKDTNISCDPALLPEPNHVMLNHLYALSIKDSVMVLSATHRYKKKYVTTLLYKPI
T2 sequence (Q9UGI9 whole entry): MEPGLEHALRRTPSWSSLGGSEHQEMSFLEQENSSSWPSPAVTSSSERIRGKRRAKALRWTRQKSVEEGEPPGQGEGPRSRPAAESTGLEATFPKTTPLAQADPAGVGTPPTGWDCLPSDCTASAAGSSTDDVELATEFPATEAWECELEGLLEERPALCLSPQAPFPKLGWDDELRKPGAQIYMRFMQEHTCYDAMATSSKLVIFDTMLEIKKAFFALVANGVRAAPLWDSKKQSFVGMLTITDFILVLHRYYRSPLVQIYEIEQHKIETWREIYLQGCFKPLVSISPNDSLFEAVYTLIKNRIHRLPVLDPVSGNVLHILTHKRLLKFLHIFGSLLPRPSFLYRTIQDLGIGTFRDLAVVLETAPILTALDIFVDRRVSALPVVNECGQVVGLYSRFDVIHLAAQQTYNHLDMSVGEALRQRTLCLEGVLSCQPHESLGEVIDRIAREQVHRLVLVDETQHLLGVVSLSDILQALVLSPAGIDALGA
Procedure: as §1

[3] = molecular target: T3, AMPK α2β1γ1 (Homo sapiens, UniProt P54619+P54646+Q9Y478); test: Steady-state kinetics, radiometric SAMS assay; format: biochemical; details: absence of AMP, SAMS fixed at ~10-fold Km, read-out: Km ATP
T3 construct: Recombinant full-length AMPK heterotrimeric complexes α1β1γ1, α1β2γ1, α1β2γ3, α2β1γ1, α2β2γ1 and α2β2γ3 were cloned; 6X-His (N); made in house; host or cells: E. coli BL21-CodonPlus (DE3)-RIPL
T3 sequence (P54646 whole entry): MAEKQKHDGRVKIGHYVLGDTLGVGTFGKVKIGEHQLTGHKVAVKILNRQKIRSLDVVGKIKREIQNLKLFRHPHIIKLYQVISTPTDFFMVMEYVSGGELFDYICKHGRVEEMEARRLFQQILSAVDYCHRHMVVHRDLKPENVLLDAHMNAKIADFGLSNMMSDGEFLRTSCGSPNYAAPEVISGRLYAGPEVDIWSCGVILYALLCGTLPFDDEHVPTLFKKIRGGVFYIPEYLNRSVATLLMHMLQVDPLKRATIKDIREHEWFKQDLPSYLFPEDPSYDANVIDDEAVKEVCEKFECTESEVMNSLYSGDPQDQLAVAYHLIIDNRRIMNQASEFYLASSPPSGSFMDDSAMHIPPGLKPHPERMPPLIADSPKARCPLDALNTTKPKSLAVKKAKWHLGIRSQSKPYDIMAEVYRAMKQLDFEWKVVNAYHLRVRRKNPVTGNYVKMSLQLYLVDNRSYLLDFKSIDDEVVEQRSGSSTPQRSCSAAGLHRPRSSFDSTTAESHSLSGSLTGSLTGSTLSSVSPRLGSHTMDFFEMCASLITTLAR
T3 sequence (Q9Y478 whole entry): as the sequence (Q9Y478 whole entry) above
T3 sequence (P54619 whole entry): as the sequence (P54619 whole entry) above
Procedure: as §1

[4] = molecular target: T4, AMPK α2β2γ3 (Homo sapiens, UniProt O43741+P54646+Q9UGI9); test: Steady-state kinetics, radiometric SAMS assay; format: biochemical; details: absence of AMP, SAMS fixed at ~10-fold Km, read-out: Km ATP
T4 construct: Recombinant full-length AMPK heterotrimeric complexes α1β1γ1, α1β2γ1, α1β2γ3, α2β1γ1, α2β2γ1 and α2β2γ3 were cloned; 6X-His (N); made in house; host or cells: E. coli BL21-CodonPlus (DE3)-RIPL
T4 sequence (P54646 whole entry): as the sequence (P54646 whole entry) above
T4 sequence (O43741 whole entry): as the sequence (O43741 whole entry) above
T4 sequence (Q9UGI9 whole entry): as the sequence (Q9UGI9 whole entry) above
Procedure: as §1

[5] = molecular target: T5, AMPK α1β2γ1 (Homo sapiens, UniProt O43741+P54619+Q13131); test: Steady-state kinetics, radiometric SAMS assay; format: biochemical; details: absence of AMP, SAMS fixed at ~10-fold Km, read-out: Km ATP
T5 construct: Recombinant full-length AMPK heterotrimeric complexes α1β1γ1, α1β2γ1, α1β2γ3, α2β1γ1, α2β2γ1 and α2β2γ3 were cloned; 6X-His (N); made in house; host or cells: E. coli BL21-CodonPlus (DE3)-RIPL
T5 sequence (Q13131 whole entry): as the sequence (Q13131 whole entry) above
T5 sequence (O43741 whole entry): as the sequence (O43741 whole entry) above
T5 sequence (P54619 whole entry): as the sequence (P54619 whole entry) above
Procedure: as §1

[6] = molecular target: T6, AMPK α2β2γ1 (Homo sapiens, UniProt O43741+P54619+P54646); test: Steady-state kinetics, radiometric SAMS assay; format: biochemical; details: absence of AMP, SAMS fixed at ~10-fold Km, read-out: Km ATP
T6 construct: Recombinant full-length AMPK heterotrimeric complexes α1β1γ1, α1β2γ1, α1β2γ3, α2β1γ1, α2β2γ1 and α2β2γ3 were cloned; 6X-His (N); made in house; host or cells: E. coli BL21-CodonPlus (DE3)-RIPL
T6 sequence (P54646 whole entry): as the sequence (P54646 whole entry) above
T6 sequence (O43741 whole entry): as the sequence (O43741 whole entry) above
T6 sequence (P54619 whole entry): as the sequence (P54619 whole entry) above
Procedure: as §1

[7] = molecular target: T7, BAP-tagged AMPK α2β2γ3 (Homo sapiens, UniProt O43741+P54646+Q9UGI9); test: SPR direct binding (Biacore)
T7 construct: Recombinant full-length AMPK heterotrimeric complexes α1β1γ1, α1β2γ1, α1β2γ3, α2β1γ1, α2β2γ1 and α2β2γ3 were cloned into a tricistronic vector system; 6X-His (N); made in house; host or cells: E. coli BL21-CodonPlus (DE3)-RIPL, co-expressed with BirA
T7 sequence (P54646 whole entry): as the sequence (P54646 whole entry) above
T7 sequence (O43741 whole entry): as the sequence (O43741 whole entry) above
T7 sequence (Q9UGI9 whole entry): as the sequence (Q9UGI9 whole entry) above
Procedure: (§2) SPR experiments were performed on a Biacore™ 3000 instrument (GE Healthcare). BAP-tagged AMPK isoform (α1β1γ1, α1β2γ1, α2β2γ1, α2β2γ3) was captured on to a streptavidin sensor chip to levels ranging from 4000 to 6000 RU. […] Binding responses were processed using Scrubber 2 (BioLogic Software Pty Ltd) to zero, x-align, double reference and corrected for excluded volume effect of DMSO in the data. […] The compound was injected at a flow rate of 50 μl/min with total contact time of 120 s and dissociation time of 600 s. Rate parameters (kon, koff) and corresponding dissociation constant(KD=koff/kon) were determined by globally fitting all of the experimental data to a simple 1:1 interaction model using Biaeval software (GE Healthcare). To determine nt binding, 10 concentrations with 2-fold dilutions were tested in duplicate. The highest concentration tested was 2 mM. The compound was injected at a flow rate of 50 μl/min with total contact time of 120 s and dissociation time of 300 s. Equilibrium dissociation constant (KD) was determined using a steady-state affinity algorithm available within Scrubber.
(§3) We then compared the binding of nts (AMP, ADP and ATP) to α1β1γ1, α1β2γ1, α2β2γ1 and α2β2γ3 isoforms in the presence and absence of Mg^2+ and Stau, using SPR technique.

[8] = molecular target: T8, BAP-tagged AMPK α1β2γ1 (Homo sapiens, UniProt O43741+P54619+Q13131); test: SPR direct binding (Biacore)
T8 construct: Recombinant full-length AMPK heterotrimeric complexes α1β1γ1, α1β2γ1, α1β2γ3, α2β1γ1, α2β2γ1 and α2β2γ3 were cloned into a tricistronic vector system; 6X-His (N); made in house; host or cells: E. coli BL21-CodonPlus (DE3)-RIPL, co-expressed with BirA
T8 sequence (Q13131 whole entry): as the sequence (Q13131 whole entry) above
T8 sequence (O43741 whole entry): as the sequence (O43741 whole entry) above
T8 sequence (P54619 whole entry): as the sequence (P54619 whole entry) above
Procedure: as §2, §3

[9] = molecular target: full-length, pAMPK; set-up: method as in PMID 21399626; details: presence of Mg2+, cited from earlier work
[10] = molecular target: T9, BAP-tagged AMPK α1β1γ1 (Homo sapiens, UniProt P54619+Q13131+Q9Y478); test: SPR direct binding (Biacore)
T9 construct: Recombinant full-length AMPK heterotrimeric complexes α1β1γ1, α1β2γ1, α1β2γ3, α2β1γ1, α2β2γ1 and α2β2γ3 were cloned; 6X-His (N); AviTag (BAP); made in house; host or cells: E. coli (co-expressed with BirA)
T9 sequence (Q13131 whole entry): as the sequence (Q13131 whole entry) above
T9 sequence (Q9Y478 whole entry): as the sequence (Q9Y478 whole entry) above
T9 sequence (P54619 whole entry): as the sequence (P54619 whole entry) above
Procedure: as §2
(§4) We then compared the binding of nts (AMP, ADP and ATP) to α1β1γ1, α1β2γ1, α2β2γ1 and α2β2γ3 isoforms in the presence and absence of Mg^2+ and Stau, using SPR technique. […]

[11] = molecular target: T10, BAP-tagged AMPK α2β2γ1 (Homo sapiens, UniProt O43741+P54619+P54646); test: SPR direct binding (Biacore)
T10 construct: Recombinant full-length AMPK heterotrimeric complexes α1β1γ1, α1β2γ1, α1β2γ3, α2β1γ1, α2β2γ1 and α2β2γ3 were cloned into a tricistronic vector system; 6X-His (N); made in house; host or cells: E. coli BL21-CodonPlus (DE3)-RIPL, co-expressed with BirA
T10 sequence (P54646 whole entry): as the sequence (P54646 whole entry) above
T10 sequence (O43741 whole entry): as the sequence (O43741 whole entry) above
T10 sequence (P54619 whole entry): as the sequence (P54619 whole entry) above
Procedure: as §2, §4

[12] = molecular target: T2, AMPK α1β2γ3; test: Phosphatase (PP2Aα) sensitivity, pThr172/174 dephosphorylation; format: biochemical; details: PP2Aα concentration for half-maximal dephosphorylation, absence of activator, read-out: PP2Aα sensitivity dEC50
Procedure: (§5) Test compound was previously diluted in half-log increments, starting at 40 μM in 100% DMSO, diluted 10-fold in assay buffer and dispensed into a microtitre plate. After 15 min at room temperature, phosphatase was added to the mixture and the reaction was allowed to proceed for 60 min at room temperature. Reactions were quenched by the addition of okadaic acid, and transferred to PVDF membrane using the slot-blot apparatus and subjected to immunoblotting. Phosphatase sensitivity was similarly assessed by subjecting pAMPK to a phosphatase (PP2Aα) treatment using various concentrations and incubation times. The concentration of phosphatase was expressed as nmol of PP2Aα per minute per nmol of pAMPK in the reaction.
(§6) The membrane was blocked with Western Blot Blocking Buffer Reagent (Li-Cor) for 3–4 h at room temperature. The blot was probed using a rabbit α-pThr^172/174-specific antibody (Cell Signaling 40H9) at 1:500 dilution for 2 h and washed three times using 1 × PBS/0.1% Tween 20 (42°C pre-warmed wash buffer). Following the wash step, goat anti-rabbit 800CW (Rockland) at 1:10000 dilution was used as a secondary antibody. Blots were visualized using the Li-Cor Odyssey infrared imaging system and signal quantification was performed using the Odyssey software. The pEC50 values (estimated concentration of activator required for half-maximal protection of pThr^172/174 from PP2α) were calculated using GraphPad Prism software.
(§7) We then examined the sensitivity of phospho-α-Thr^172/174 (pThr^172/174) for dephosphorylation by phosphatase (PP2Aα) in the absence of allosteric modulators. The extent of dephosphorylation was measured using an antibody specific to α-pThr^172/174 as described in ‘Experimental’ section. […] The presence of the regulatory subunits (β and γ) leads to increased protection of pAMPK from dephosphorylation compared with the kinase domains alone (Figure 6). […] The dEC50 values for α2-containing isoforms were 40, 57 and 41 nM for α2β1γ1, α2β2γ1 and α2β2γ3 respectively; 13- to 18-fold right-shifted compared with that for isolated α2-kinase domain (Figure 6).
(§8) Figure 6 Phosphatase (PP2Aα) sensitivity of AMPK isoforms Effect of phosphatase (PP2Aα) on pThr^172/174 dephosphorylation of AMPK isoforms in the absence of activators is shown. Data are mean (n=2), and curves were generated using best-fit values.

[13] = molecular target: T3, AMPK α2β1γ1; test: as above; format: biochemical; details: PP2Aα concentration for half-maximal dephosphorylation, absence of activator, read-out: PP2Aα sensitivity dEC50
Procedure: as §5, §6, §7, §8

[14] = molecular target: T11, AMPK α1-kinase domain (α1-KD) (Homo sapiens, UniProt Q13131); test: as above; format: biochemical; details: PP2Aα concentration for half-maximal dephosphorylation, absence of activator, read-out: PP2Aα sensitivity dEC50
T11 construct: AMPK α1-kinase domain (α1-KD; residues 18–293); 6X-His (N); made in house; host or cells: E. coli BL21-CodonPlus (DE3)-RIPL (pET28a)
T11 sequence (Q13131 18-293): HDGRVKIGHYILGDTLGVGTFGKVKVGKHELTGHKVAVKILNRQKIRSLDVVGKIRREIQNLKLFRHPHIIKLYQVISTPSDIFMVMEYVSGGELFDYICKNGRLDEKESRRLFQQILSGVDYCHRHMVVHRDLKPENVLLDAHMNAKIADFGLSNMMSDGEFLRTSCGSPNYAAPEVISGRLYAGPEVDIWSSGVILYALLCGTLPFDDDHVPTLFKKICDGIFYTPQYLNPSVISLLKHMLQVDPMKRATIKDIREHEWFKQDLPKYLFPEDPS
Procedure: as §5, §6, §7, §8

[15] = molecular target: T4, AMPK α2β2γ3; test: as above; format: biochemical; details: PP2Aα concentration for half-maximal dephosphorylation, absence of activator, read-out: PP2Aα sensitivity dEC50
Procedure: as §5, §6, §7, §8

[16] = molecular target: T12, AMPK α2-kinase domain (α2-KD) (Homo sapiens, UniProt P54646); test: as above; format: biochemical; details: PP2Aα concentration for half-maximal dephosphorylation, absence of activator, read-out: PP2Aα sensitivity dEC50
T12 construct: α2-kinase domain (α2-KD; residues 7–282); 6X-His (N); made in house; host or cells: E. coli BL21-CodonPlus (DE3)-RIPL (pET28a)
T12 sequence (P54646 7-282): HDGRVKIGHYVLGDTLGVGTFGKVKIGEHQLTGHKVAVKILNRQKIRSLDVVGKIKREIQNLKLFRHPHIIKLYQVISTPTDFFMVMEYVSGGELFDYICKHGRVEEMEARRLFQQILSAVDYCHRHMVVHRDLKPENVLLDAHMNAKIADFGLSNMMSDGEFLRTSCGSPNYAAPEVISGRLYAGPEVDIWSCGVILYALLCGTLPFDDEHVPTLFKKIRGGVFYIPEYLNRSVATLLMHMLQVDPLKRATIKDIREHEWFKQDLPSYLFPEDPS
Procedure: as §5, §6, §7, §8

[17] = molecular target: T6, AMPK α2β2γ1; test: as above; format: biochemical; details: PP2Aα concentration for half-maximal dephosphorylation, absence of activator, read-out: PP2Aα sensitivity dEC50
Procedure: as §5, §6, §7, §8

[18] = presence of Mg2+ and 25 nM Stau, cell spans KD1 and KD2, read-out: KD (single measurable binding affinity)
[19] = presence of Mg2+, cell spans KD1 and KD2, read-out: KD (single measurable binding affinity)
[20] = tighter site, absence of Mg2+ and Stau, read-out: KD1
[21] = weaker site, absence of Mg2+ and Stau, read-out: KD2

Nc1ncnc2c1ncn2[C@@H]1O[C@H](COP(=O)(O)OP(=O)(O)OP(=O)(O)O)[C@@H](O)[C@H]1O [ATP]
Km [1]: 26 ± 5.6 µM
Km [2]: 333 ± 65 µM
Km [3]: 31.4 ± 9.3 µM
Km [4]: 417 ± 39 µM
Km [5]: 45.1 ± 5.8 µM
Km [6]: 48 ± 5 µM
Kd [7, 18]: 540 ± 20 µM
Kd [7, 19]: 277 ± 4 µM
Kd [7, 20]: 7.6 ± 0.6 µM
Kd [7, 21]: 3500 ± 300 µM
Kd [8, 18]: 400 ± 20 µM
Kd [8, 19]: 95 ± 1 µM
Kd [8, 20]: 1.1 ± 0.04 µM
Kd [8, 21]: 3400 ± 300 µM
Kd ([9]; read-out: equilibrium dissociation constant, stronger binding site): 18 µM
Kd ([9]; read-out: equilibrium dissociation constant, weaker binding site): 230 µM
Kd [10, 18]: 300 ± 10 µM
Kd [10, 19]: 130 ± 1 µM
Kd [10, 20]: 1.35 ± 0.02 µM
Kd [10, 21]: 2260 ± 90 µM
Kd [11, 18]: 133 ± 4 µM
Kd [11, 19]: 95 ± 1 µM
Kd [11, 20]: 0.92 ± 0.03 µM
Kd [11, 21]: 2900 ± 200 µM

PP2Aα: Human recombinant protein phosphatase 2Aα catalytic subunit expressed in insect cells
EC50 [12]: 0.441 µM
EC50 [13]: 0.04 µM
EC50 [14]: 0.0032 µM
EC50 [15]: 0.041 µM
EC50 [16]: 0.0013 µM
EC50 [17]: 0.057 µM
